According to the NIST ThermoML archive (doi:10.1021/acs.jced.7b01112):
± gives the expanded uncertainty stated by the source.

Columns and labels:
[1] = Molar enthalpy of transition or fusion; conditions: Crystal; DSC
[2] = Crystal; DTA

Molar enthalpy of transition or fusion [1]: 55.1 ± 3.5 kJ/mol
Normal melting temperature [2]: 341.30 ± 0.7 °C
SMILES: O=C(O)c1ccc(C(=O)O)o1 [2,5-furandicarboxylic acid]
